Source: patent US8088806B2 (Achillion Pharmaceuticals, Inc., priority 2005, dated 2012)

test system: HCV replicon; assay: Replicon based assay of HCV replication inhibition (NPT ELISA); format: cell-based, Hepatitis C virus; conditions: Hepatitis C virus, Huh-7, 72 h, Table I; Huh-7 HCV replicon-containing cells, three days; read-out: Activity
Experimental: Compounds claimed herein are tested for the ability to inhibit viral replication of the Hepatitis C replicon in cultured cells in which the HCV replicon construct has been incorporated. The HCV replicon system was described by Bartenschlager, et. al (Science, 285, pp. 110-113 (1999)). The replicon system is predictive of in vivo anti-HCV activity; compounds that are active in humans uniformly evidence activity in the replicon assay.
In this assay HCV replicon containing cells are treated with different concentrations of the test compound to ascertain the ability of the test compound to suppress replication of the HCV replicon. As a positive control, HCV replicon-containing cells are treated with different concentrations of interferon alpha, a known inhibitor of HCV replication. The replicon assay system includes Neomycin Phosphotransferase (NPT) as a component of the replicon itself in order to detect the transcription of replicon gene products in the host cell. Cells in which the HCV replicon is actively replicating have high levels of NPT; the level of NPT is proportional to HCV replication. […] The NPT level of each sample is measured using a captured ELISA.
A protocol for testing compounds for the ability to inhibit viral replication of the Hepatitis C replicon cultured cells in which the replicon construct has been incorporated, follows.
The HCV replicon contains, 5′-3′, the HCV-IRES, the neomycin phosphotransferase (neo) gene, the IRES of encephalomyocarditis virus, which directs translation of HCV sequences NS3 to NS5B, and the 3′-NTR. The sequence of the HCV replicon has been deposited in GenBank (Accession no. AJ242652).
The replicon is transfected into Huh-7 cells using standard methods such as electroporation.
The equipment and materials include, but are not limited to, Huh-7 HCV replicon-containing cells, maintenance media (DMEM (Dulbecco's modified Eagle media) supplemented with 10% FBS, L-glutamine, non-essential amino acids, penicillin (100 units/ml), streptomycin (100 micrograms/ml), and 500 micrograms/ml of Geneticin (G418), screening media (DMEM supplemented with 10% FBS, L-glutamine, non-essential amino acids, penicillin (100 units/ml) and streptomycin (100 micrograms/ml)), 96 well tissue culture plates (flat bottom), 96 well plates (U bottom for drug dilution), Interferon alpha for positive control, fixation reagent (such as methanol: acetone), primary antibody (rabbit anti-NPTII), secondary antibody: Eu-N1l, and enhancement solution.
The cells are then seeded onto 96-well plates at a density of 6000-7500 cells/100 microliters/well (6-7.5×10^5 cells/10 ml/plate). The plates are then incubated at 37° C. in a 5% CO2 incubator.
HCV replicon-containing cells are rinsed with once PBS once; 2 mls of trypsin are then added. Cells are incubated at 37° C. in a 5% CO2 incubator for 3-5 minutes. 10 mls of complete medium is added to stop the reaction. Cells are blown gently, put into a 15 ml tube, and spun at 1200 rpm for four minutes. The trypsin/medium solution is removed and 5 mls of medium (500 ml DMEM (high glucose)) from BRL catalog #12430-054; 50 mls 10% FBS, 5% Geneticin G418 (50 mg/ml, BRL catalog #10131-035), 5 ml MEM non-essential amino acids (100×BRL #11140-050) and 5 ml pen-strep (BRL # 15140-148) is added. The cells and media are mixed carefully
Cells are plated with screening medium (500 ml DMEM (BRL #21063-029), 50 ml FBS (BRL #10082-147) and 5 ml MEM non-essential amino acid (BRL #11140-050) at 6000-7500 cells/100 μl/well of 96 well plate (6-7.5×10^5 cells/10 ml/plate). Plates are placed into 37° C. 5% CO2 incubator overnight.
The following morning, drugs (test compounds or interferon alpha) are diluted in 96 well U bottom plates with media or DMSO/media, depending on the final concentration chosen for screening. Generally for 6 concentrations of each test compounds ranging from 10 micromolar to 0.03 micromolar are applied. […]

SMILES	EC50
CCCCCOc1ccc(Nc2nccs2)cc1C(F)(F)F [compound 1, N-(3-(trifluoromethyl)-4-(pentyloxy)phenyl)thiazol-2-amine]	< 1000 nM
CCCCCOc1ccc(Nc2nc(-c3ccc(F)cc3)cs2)cc1C(F)(F)F [compound 2, N-(3-(trifluoromethyl)-4-(pentyloxy)phenyl)-4-(4-fluorophenyl)thiazol-2-amine]	< 1000 nM
CCCCCOc1ccc(Nc2nc(-c3ccc(OC(F)F)cc3)cs2)cc1C(F)(F)F [compound 4, 4-(4-(difluoromethoxy)phenyl)-N-(3-(trifluoromethyl)-4-(pentyloxy)phenyl)thiazol-2-amine]	< 1000 nM
CCCCCOc1ccc(Nc2nc(C(Cc3ccccc3)NS(=O)(=O)c3ccc(C)cc3)cs2)cc1C(F)(F)F (centres unmarked) [compound 6, N-(3-(trifluoromethyl)-4-(pentyloxy)phenyl)-4-(2-phenyl-1-(tosylamino)ethyl)thiazol-2-amine]	1000 to 10000 nM
CCCCCOc1ccc(Nc2nc(-c3cccnc3)cs2)cc1C(F)(F)F [compound 7, N-(3-(trifluorometbyl)-4-(pentyloxy)phenyl)-4-(pyridin-3-yl)thiazol-2-amine]	< 1000 nM
CCCCCOc1ccc(Nc2nc(-c3ccc(N4CCCC4)cc3)cs2)cc1C(F)(F)F [compound 8, N-(3-(trifluoromethyl)-4-(pentyloxy)phenyl)-4-(4-(pyrrolidin-1-yl)phenyl)thiazol-2-amine]	< 1000 nM
CCCCCOc1ccc(Nc2ncc(Br)s2)cc1C(F)(F)F [compound 9, 5-bromo-N-(3-(trifluoromethyl)-4-(pentyloxy)phenyl)thiazol-2-amine]	< 1000 nM
CCCCCOc1ccc(Nc2nc(C(=O)O)cs2)cc1C(F)(F)F [compound 10, 2-(3-(trifluoromethyl)-4-(pentyloxy)phenylamino)thiazole-4-carboxylic acid]	> 10000 nM
CCCCCOc1ccc(Nc2nc(C(=O)Nc3ccc(Cl)cc3)cs2)cc1C(F)(F)F [compound 11, 2-(3-(trifluoromethyl)-4-(pentyloxy)phenylamino)-N-(4-chlorophenyl)thiazole-4-carboxamide]	> 10000 nM
CCCCCOc1ccc(Nc2nc(-c3ccc(F)cc3)c(C)s2)cc1C(F)(F)F [compound 12, N-(3-(trifluoromethyl)-4-(pentyloxy)phenyl)-4-(4-fluorophenyl)-5-methylthiazol-2-amine]	< 1000 nM
CCCCCOc1ccc(Nc2csc(-c3cccnc3)n2)cc1C(F)(F)F [compound 13, N-(3-(trifluoromethyl)-4-(pentyloxy)phenyl)-2-(pyridin-3-yl)thiazol-4-amine]	> 10000 nM
CCCCCOc1ccc(Nc2nc(C(=O)Nc3cccnc3)cs2)cc1C(F)(F)F [compound 14, 2-(3-(trifluoromethyl)-4-(pentyloxy)phenylamino)-N-(pyridin-3-yl)thiazole-4-carboxamide]	< 1000 nM
CCCCCOc1ccc(Nc2nc(C(=O)Nc3ccc(C#N)cc3)cs2)cc1C(F)(F)F [compound 15, 2-(3-(trifluoromethyl)-4-(pentyloxy)phenylamino)-N-(4-cyanophenyl)thiazole-4-carboxamide]	> 10000 nM
CCCCCOc1ccc(Nc2nc(C(=O)Nc3ccc(OC)cc3)cs2)cc1C(F)(F)F [compound 16, 2-(3-(trifluoromethyl)-4-(pentyloxy)phenylamino)-N-(4-methoxyphenyl)thiazole-4-carboxamide]	> 10000 nM
CCCCCOc1ccc(Nc2nc(C(=O)Nc3ccc(C(C)(C)C)cc3)cs2)cc1C(F)(F)F [compound 17, 2-(3-(trifluoromethyl)-4-(pentyloxy)phenylamino)-N-(4-tert-butylphenyl)thiazole-4-carboxamide]	> 10000 nM
CCCCCOc1ccc(Nc2nc(C(N)=O)cs2)cc1C(F)(F)F [compound 18, 2-(3-(trifluoromethyl)-4-(pentyloxy)phenylamino)thiazole-4-carboxamide]	< 1000 nM
CCCCCc1ccc(Nc2nc(-c3ccc(F)cc3)cs2)cc1 [compound 19, 4-(4-fluorophenyl)-N-(4-pentylphenyl)thiazol-2-amine]	< 1000 nM

SMILES	EC50
CCCCCc1ccc(Nc2nc(-c3ccc(Cl)cc3)cs2)cc1 [compound 20, 4-(4-chlorophenyl)-N-(4-pentylphenyl)thiazol-2-amine]	< 1000 nM
CCCCCOc1ccc(Nc2nc(-c3ccc(F)cc3)cs2)cc1 [compound 21, 4-(4-fluorophenyl)-N-(4-(pentyloxy)phenyl)thiazol-2-amine]	< 1000 nM
CCCCCc1ccc(Nc2nc(-c3ccc(Cl)c(Cl)c3)cs2)cc1 [compound 22, 4-(3,4-dichlorophenyl)-N-(4-pentylphenyl)thiazol-2-amine]	< 1000 nM
CCCCCOc1ccc(Nc2nc(-c3ccc(Cl)c(Cl)c3)cs2)cc1 [compound 24, 4-(3,4-dichlorophenyl)-N-(4-(pentyloxy)phenyl)thiazol-2-amine]	< 1000 nM
CCCCCOc1ccc(Nc2nc(-c3ccc(Cl)cc3)cs2)cc1 [compound 26, 4-(4-chlorophenyl)-N-(4-(pentyloxy)phenyl)thiazol-2-amine]	< 1000 nM
Fc1ccc(-c2csc(Nc3cccc(OCc4ccccc4)c3)n2)cc1 [compound 27, N-(3-(benzyloxy)phenyl)-4-(4-fluorophenyl)thiazol-2-amine]	< 1000 nM
Clc1ccc(-c2csc(Nc3cccc(OCc4ccccc4)c3)n2)cc1Cl [compound 28, N-(3-(benzyloxy)phenyl)-4-(3,4-dichlorophenyl)thiazol-2-amine]	< 1000 nM
Clc1ccc(-c2csc(Nc3cccc(OCc4ccccc4)c3)n2)cc1 [compound 30, N-(3-(benzyloxy)phenyl)-4-(4-chlorophenyl)thiazol-2-amine]	< 1000 nM
Fc1ccc(-c2csc(Nc3cccc(Oc4ccccc4)c3)n2)cc1 [compound 31, 4-(4-fluorophenyl)-N-(3-phenoxyphenyl)thiazol-2-amine]	< 1000 nM
Clc1ccc(-c2csc(Nc3cccc(Oc4ccccc4)c3)n2)cc1Cl [compound 32, 4-(3,4-dichlorophenyl)-N-(3-phenoxyphenyl)thiazol-2-amine]	< 1000 nM
Clc1ccc(-c2csc(Nc3cccc(Oc4ccccc4)c3)n2)cc1 [compound 34, 4-(4-chlorophenyl)-N-(3-phenoxyphenyl)thiazol-2-amine]	< 1000 nM
Fc1ccc(-c2csc(Nc3cccc(Cc4ccccc4)c3)n2)cc1 [compound 35, N-(3-benzylphenyl)-4-(4-fluorophenyl)thiazol-2-amine]	> 10000 nM
Clc1ccc(-c2csc(Nc3cccc(Cc4ccccc4)c3)n2)cc1Cl [compound 36, N-(3-benzylphenyl)-4-(3,4-dichlorophenyl)thiazol-2-amine]	< 1000 nM
Clc1ccc(-c2csc(Nc3cccc(Cc4ccccc4)c3)n2)cc1 [compound 38, N-(3-benzylphenyl)-4-(4-chlorophenyl)thiazol-2-amine]	< 1000 nM
Fc1ccc(-c2csc(Nc3ccc(Cc4ccccc4)cc3)n2)cc1 [compound 39, N-(4-benzylphenyl)-4-(4-fluorophenyl)thiazol-2-amine]	> 10000 nM
Clc1ccc(-c2csc(Nc3ccc(Cc4ccccc4)cc3)n2)cc1Cl [compound 40, N-(4-benzylphenyl)-4-(3,4-dichlorophenyl)thiazol-2-amine]	> 10000 nM
Fc1ccc(-c2csc(Nc3ccc(Cc4ccccc4)cc3)n2)c(F)c1 [compound 41, N-(4-benzylphenyl)-4-(2,4-difluorophenyl)thiazol-2-amine]	> 10000 nM

same assay, conditions: Table I; Huh-7 HCV replicon-containing cells, three days; read-out: Activity

SMILES	EC50
CCCCCOc1ccc(Nc2nc(-c3ccc(Cl)cc3)cs2)cc1C(F)(F)F [compound 3]	< 1000 nM
